What was measured:
Type in all cases: cell-based
Conditions in all cases: for Zone of inhibition: 30 μg/tablet paper, 37° C., 24 h, ≥17 mm sensitive, 15-16 mm intermediary, ≤14 mm drug resistance; for Inhibitory effect (in words): summary of FIGS. 1-3 and Table 1
[1] = test system: MRSA 18-596 (multi-resistant Staphylococcus aureus 596); assay: Paper diffusion method drug sensitivity test, MRSA 18-596
Experimental: (§1) The antimicrobial efficacy was determined by a paper diffusion method drug sensitivity test.
(§2) Experimental strains: multi-resistant Staphylococcus aureus 171, multi-resistant Staphylococcus aureus 575, multi-resistant Staphylococcus aureus 596. The experimental strains were provided by Huashan Hospital Affiliated to Fudan University (Institute of Antibiotic of Fudan University).
(§3) Drug sensitive paper: The drug sensitive paper is a special drug sensitive paper with a diameter of 6.35 mm and a water absorption of 0.02 mL. The control drug was vancomycin (30 μg/tablet); the test drug was pleuromutilin 2-[(diphenylmethyl)thio]acetic acid ester (30 μg/tablet).
(§4) The experimental strains were inoculated in non-selective medium and placed in air at 37° C. for 24 h. Pick a single colony that grows well and inoculate it into broth medium, incubate at 35° C.±2° C. for 6 hours, and use LA broth medium to calibrate the concentration of the bacterial solution to 0.5 Mie turbidimetric tube ([…]). A bacterial suspension is obtained.
(§5) LB dry powder was weighed, sterilized at 103.4 Kpa, 121.3° C. high-pressure steam for 15 min, and then placed it in a 40° C.-50° C. water bath. A sterile empty plate (inner diameter 9 cm) was placed on the surface of the ultra-clean table water table, and […] to the plate. The thickness of each plate was 3 mm to 4 mm. After the plate was cooled at room temperature, it was stored in the refrigerator at 2° C.-8° C. A sterile cotton swab was used to dip the bacterial solution and to evenly coat the surface of the LB plate 3 times. After inoculation of the bacterial suspension, the LB plate was dried at room temperature for 3 min to 5 min. Sterile forceps were used to closely attach the antibacterial drug paper to the dish. The dish was put upside down and placed in a 37° C. incubator for 24 h. The results were observed by measuring the diameter. Taking 0.5% DMSO solution as a negative control, the antibacterial activity is expressed by the diameter of the inhibition zone. The inhibition zone ≥17 mm, sensitive; the inhibition zone of 15 mm-16 mm, intermediary; the inhibition zone ≤14 mm, drug resistance.

[2] = test system: MRSA 18-171 (multi-resistant Staphylococcus aureus 171); assay: Paper diffusion method drug sensitivity test, MRSA 18-171
Experimental: as §1, §2, §3, §4, §5

[3] = test system: MRSA 18-575 (multi-resistant Staphylococcus aureus 575); assay: Paper diffusion method drug sensitivity test, MRSA 18-575
Experimental: as §1, §2, §3, §4, §5

SMILES	Zone of inhibition [1]	Inhibitory effect (in words) [1]	Zone of inhibition [2]	Inhibitory effect (in words) [2]	Zone of inhibition [3]	Inhibitory effect (in words) [3]
C=C[C@]1(C)C[C@@H](OC(=O)COC(=O)CSC(c2ccccc2)c2ccccc2)[C@]2(C)[C@H](C)CC[C@]3(CCC(=O)[C@H]32)[C@@H](C)[C@@H]1O	25 mm	strong inhibitory effects	21 mm	strong inhibitory effects	23 mm	strong inhibitory effects
O=C(O)CSC(c1ccccc1)c1ccccc1 [2-[(Diphenylmethyl)thio]acetic acid]	0 mm	no inhibitory effect	0 mm	no inhibitory effect	0 mm	no inhibitory effect
CN[C@H](CC(C)C)C(=O)N[C@H]1C(=O)N[C@@H](CC(N)=O)C(=O)N[C@H]2C(=O)N[C@H]3C(=O)N[C@H](C(=O)N[C@H](C(=O)O)c4cc(O)cc(O)c4-c4cc3ccc4O)[C@H](O)c3ccc(c(Cl)c3)Oc3cc2cc(c3O[C@@H]2O[C@H](CO)[C@@H](O)[C@H](O)[C@H]2O[C@H]2C[C@](C)(N)[C@H](O)[C@H](C)O2)Oc2ccc(cc2Cl)[C@H]1O [Vancomycin, vancomycin]	21 mm	–	17 mm	–	18 mm	–
C=C[C@]1(C)C[C@@H](OC(=O)CO)[C@]2(C)[C@H](C)CC[C@]3(CCC(=O)[C@H]32)[C@@H](C)[C@@H]1O [Pleuromutilin]	0 mm	no inhibitory effect	0 mm	no inhibitory effect	0 mm	no inhibitory effect

Reference: patent US11512049B2, “Pleuromutilin 2-[(diphenylmethyl)thio] acetic acid ester with anti-drug resistant bacteria activity and a method of preparing the same” (SHAANXI UNIVERSITY OF SCIENCE AND TECHNOLOGY, priority 2021, dated 2022)
